According to ChEMBL document CHEMBL1201862, “PubChem BioAssay data set” (2004):
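Cells were grown in 96-well plates and exposed to each compound for 48 hours at five concentrations; endpoints were interpolated linearly between bracketing concentrations, or set to the highest concentration if not reached. The concentration for 50% growth inhibition is given as GI50.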 The source made the active and inactive calls. No stated cut-off is given here; in the data, active = GI50 up to about 1.1 µM and inactive = higher.

Legend:
Assay in all cases: DTP human tumour cell line panel, 48 h
786-0 = tested on: 786-0
A498 = tested on: A498
A549 = tested on: A549
ACHN = tested on: ACHN
BT-549 = tested on: BT-549
CAKI-1 = tested on: CAKI-1
CCRF-CEM = tested on: CCRF-CEM
COLO 205 = tested on: COLO 205
DU-145 = tested on: DU-145
EKVX = tested on: EKVX
HCT-116 = tested on: HCT-116
HCT-15 = tested on: HCT-15
HL-60 = tested on: HL-60
HOP-62 = tested on: HOP-62
HOP-92 = tested on: HOP-92
HT-29 = tested on: HT-29
Hs-578T = tested on: Hs-578T
IGROV-1 = tested on: IGROV-1
K562 = tested on: K562
KM12 = tested on: KM12
LOX IMVI = tested on: LOX IMVI
M14 = tested on: M14
MCF7 = tested on: MCF7
MDA-MB-231 = tested on: MDA-MB-231
MDA-MB-435 = tested on: MDA-MB-435
MDA-N = tested on: MDA-N
MOLT-4 = tested on: MOLT-4
Malme-3M = tested on: Malme-3M
NCI-H23 = tested on: NCI-H23
NCI-H460 = tested on: NCI-H460
NCI-H522 = tested on: NCI-H522
NCI/ADR-RES = tested on: NCI/ADR-RES
OVCAR-3 = tested on: OVCAR-3
OVCAR-4 = tested on: OVCAR-4
OVCAR-5 = tested on: OVCAR-5
OVCAR-8 = tested on: OVCAR-8
PC-3 = tested on: PC-3
RPMI-8226 = tested on: RPMI-8226
RXF 393 = tested on: RXF 393
SF-268 = tested on: SF-268
SF-295 = tested on: SF-295
SK-MEL-28 = tested on: SK-MEL-28
SK-MEL-2 = tested on: SK-MEL-2
SK-MEL-5 = tested on: SK-MEL-5
SK-OV-3 = tested on: SK-OV-3
SN12C = tested on: SN12C
SNB-19 = tested on: SNB-19
SNB-75 = tested on: SNB-75
SR = tested on: SR
SW-620 = tested on: SW-620
T47D = tested on: T47D
TK-10 = tested on: TK-10
U-251 = tested on: U-251
UACC-257 = tested on: UACC-257
UACC-62 = tested on: UACC-62
UO-31 = tested on: UO-31
NCI-H226 = tested on: NCI-H226
SF-539 = tested on: SF-539

## c1ccc(NCCSc2nc3ccccc3s2)cc1
786-0
  GI50: 37.6 µM (inactive)
A498
  GI50: 26.5 µM (inactive)
A549
  GI50: 37.7 µM (inactive)
ACHN
  GI50: 43.8 µM (inactive)
BT-549
  GI50: 34.8 µM (inactive)
CAKI-1
  GI50: 93.1 µM (inactive)
CCRF-CEM
  GI50: 14.8 µM (inactive)
COLO 205
  GI50: 22.4 µM (inactive)
DU-145
  GI50: 97.1 µM (inactive)
EKVX
  GI50: 29.5 µM (inactive)
HCT-116
  GI50: 37.3 µM (inactive)
HCT-15
  GI50: 18 µM
HL-60
  GI50: 32.1 µM (inactive)
HOP-62
  GI50: > 100 µM (inactive)
HOP-92
  GI50: 41.1 µM (inactive)
HT-29
  GI50: 30.5 µM (inactive)
Hs-578T
  GI50: > 100 µM (inactive)
IGROV-1
  GI50: > 100 µM (inactive)
K562
  GI50: 34 µM (inactive)
KM12
  GI50: 30.9 µM (inactive)
LOX IMVI
  GI50: 45.5 µM (inactive)
M14
  GI50: 44.7 µM (inactive)
MCF7
  GI50: 25.8 µM (inactive)
MDA-MB-231
  GI50: 29.4 µM (inactive)
MDA-MB-435
  GI50: 43.3 µM (inactive)
MDA-N
  GI50: 36.9 µM (inactive)
MOLT-4
  GI50: 24.9 µM (inactive)
Malme-3M
  GI50: 44.9 µM (inactive)
NCI-H23
  GI50: 29 µM (inactive)
NCI-H460
  GI50: 30.9 µM (inactive)
NCI-H522
  GI50: 37.2 µM (inactive)
NCI/ADR-RES
  GI50: 35.9 µM (inactive)
OVCAR-3
  GI50: 88.3 µM (inactive)
OVCAR-4
  GI50: 49.8 µM (inactive)
OVCAR-5
  GI50: 54 µM (inactive)
OVCAR-8
  GI50: 79.1 µM (inactive)
PC-3
  GI50: 55.2 µM (inactive)
RPMI-8226
  GI50: 26.5 µM (inactive)
RXF 393
  GI50: 55.7 µM (inactive)
SF-268
  GI50: > 100 µM (inactive)
SF-295
  GI50: > 100 µM (inactive)
SK-MEL-28
  GI50: > 100 µM (inactive)
SK-MEL-2
  GI50: 30.8 µM (inactive)
SK-MEL-5
  GI50: 21.5 µM (inactive)
SK-OV-3
  GI50: > 100 µM (inactive)
SN12C
  GI50: 46.1 µM (inactive)
SNB-19
  GI50: > 100 µM (inactive)
SNB-75
  GI50: > 100 µM (inactive)
SR
  GI50: 39.7 µM (inactive)
SW-620
  GI50: 58.3 µM (inactive)
T47D
  GI50: 36.2 µM (inactive)
TK-10
  GI50: 23.6 µM (inactive)
U-251
  GI50: 52.8 µM (inactive)
UACC-257
  GI50: 22.1 µM (inactive)
UACC-62
  GI50: 66.5 µM (inactive)
UO-31
  GI50: 35 µM (inactive)

## CC1CN(c2cc3c(cc2F)c(=O)c(C(=O)O)cn3-c2ccc(N3CCN(C)CC3)cn2)CC(C)N1 (stereo not drawn)
786-0
  GI50: > 100 µM (inactive)
A498
  GI50: > 100 µM (inactive)
A549
  GI50: > 100 µM (inactive)
BT-549
  GI50: > 100 µM (inactive)
CAKI-1
  GI50: > 100 µM (inactive)
CCRF-CEM
  GI50: > 100 µM (inactive)
COLO 205
  GI50: 52.8 µM (inactive)
DU-145
  GI50: > 100 µM (inactive)
EKVX
  GI50: > 100 µM (inactive)
HCT-116
  GI50: > 100 µM (inactive)
HCT-15
  GI50: > 100 µM
HL-60
  GI50: > 100 µM (inactive)
HOP-62
  GI50: 89.9 µM (inactive)
HOP-92
  GI50: > 100 µM (inactive)
HT-29
  GI50: > 100 µM (inactive)
Hs-578T
  GI50: > 100 µM (inactive)
IGROV-1
  GI50: > 100 µM (inactive)
K562
  GI50: 65.6 µM (inactive)
KM12
  GI50: 87.5 µM (inactive)
M14
  GI50: > 100 µM (inactive)
MCF7
  GI50: 98.9 µM (inactive)
MDA-MB-231
  GI50: > 100 µM (inactive)
MDA-MB-435
  GI50: > 100 µM (inactive)
MDA-N
  GI50: > 100 µM (inactive)
MOLT-4
  GI50: 99.5 µM (inactive)
Malme-3M
  GI50: > 100 µM (inactive)
NCI-H226
  GI50: > 100 µM (inactive)
NCI-H23
  GI50: > 100 µM (inactive)
NCI-H460
  GI50: > 100 µM (inactive)
NCI/ADR-RES
  GI50: > 100 µM (inactive)
OVCAR-3
  GI50: > 100 µM (inactive)
OVCAR-4
  GI50: > 100 µM (inactive)
OVCAR-5
  GI50: > 100 µM (inactive)
OVCAR-8
  GI50: 44.5 µM (inactive)
PC-3
  GI50: > 100 µM (inactive)
RPMI-8226
  GI50: > 100 µM (inactive)
RXF 393
  GI50: > 100 µM (inactive)
SF-268
  GI50: > 100 µM (inactive)
SF-295
  GI50: > 100 µM (inactive)
SF-539
  GI50: > 100 µM (inactive)
SK-MEL-28
  GI50: > 100 µM (inactive)
SK-OV-3
  GI50: > 100 µM (inactive)
SN12C
  GI50: > 100 µM (inactive)
SNB-19
  GI50: 70 µM (inactive)
SNB-75
  GI50: > 100 µM (inactive)
SR
  GI50: > 100 µM (inactive)
SW-620
  GI50: 98.4 µM (inactive)
T47D
  GI50: > 100 µM (inactive)
TK-10
  GI50: > 100 µM (inactive)
U-251
  GI50: 70.5 µM (inactive)
UACC-257
  GI50: > 100 µM (inactive)
UACC-62
  GI50: > 100 µM (inactive)
UO-31
  GI50: > 100 µM (inactive)

## CC1(C)OC(=O)CC12CCN(Cc1ccccc1)CC2
786-0
  GI50: > 100 µM (inactive)
A498
  GI50: > 100 µM (inactive)
A549
  GI50: > 100 µM (inactive)
ACHN
  GI50: > 100 µM (inactive)
BT-549
  GI50: > 100 µM (inactive)
CAKI-1
  GI50: > 100 µM (inactive)
CCRF-CEM
  GI50: > 100 µM (inactive)
COLO 205
  GI50: > 100 µM (inactive)
DU-145
  GI50: > 100 µM (inactive)
EKVX
  GI50: > 100 µM (inactive)
HCT-116
  GI50: > 100 µM (inactive)
HCT-15
  GI50: > 100 µM
HL-60
  GI50: > 100 µM (inactive)
HOP-62
  GI50: > 100 µM (inactive)
HOP-92
  GI50: > 100 µM (inactive)
HT-29
  GI50: > 100 µM (inactive)
Hs-578T
  GI50: > 100 µM (inactive)
IGROV-1
  GI50: > 100 µM (inactive)
K562
  GI50: > 100 µM (inactive)
LOX IMVI
  GI50: > 100 µM (inactive)
MCF7
  GI50: > 100 µM (inactive)
MDA-MB-231
  GI50: > 100 µM (inactive)
MDA-MB-435
  GI50: > 100 µM (inactive)
MDA-N
  GI50: > 100 µM (inactive)
MOLT-4
  GI50: > 100 µM (inactive)
Malme-3M
  GI50: > 100 µM (inactive)
NCI-H226
  GI50: > 100 µM (inactive)
NCI-H23
  GI50: > 100 µM (inactive)
NCI-H522
  GI50: > 100 µM (inactive)
NCI/ADR-RES
  GI50: > 100 µM (inactive)
OVCAR-3
  GI50: > 100 µM (inactive)
OVCAR-4
  GI50: > 100 µM (inactive)
OVCAR-5
  GI50: > 100 µM (inactive)
OVCAR-8
  GI50: > 100 µM (inactive)
PC-3
  GI50: > 100 µM (inactive)
RPMI-8226
  GI50: > 100 µM (inactive)
RXF 393
  GI50: > 100 µM (inactive)
SF-268
  GI50: > 100 µM (inactive)
SF-295
  GI50: > 100 µM (inactive)
SF-539
  GI50: > 100 µM (inactive)
SK-MEL-28
  GI50: > 100 µM (inactive)
SK-MEL-2
  GI50: > 100 µM (inactive)
SK-MEL-5
  GI50: > 100 µM (inactive)
SK-OV-3
  GI50: > 100 µM (inactive)
SN12C
  GI50: > 100 µM (inactive)
SNB-19
  GI50: > 100 µM (inactive)
SNB-75
  GI50: > 100 µM (inactive)
SR
  GI50: > 100 µM (inactive)
T47D
  GI50: > 100 µM (inactive)
TK-10
  GI50: > 100 µM (inactive)
U-251
  GI50: > 100 µM (inactive)
UACC-257
  GI50: > 100 µM (inactive)
UACC-62
  GI50: > 100 µM (inactive)
UO-31
  GI50: > 100 µM (inactive)
